In patent publication US7402600B2, “Nitroderivatives of cardiovascular agents” (NicOx S.A., priority 1999, dated 2008):

System: gastric mucosa
Assay: Example F7: gastric tolerability after oral administration in NEM-treated rats
Format: in vivo
Settings: rats all receiving NEM, p.o., 0.02 mmoles/Kg of each component
Description: Example F1 was repeated with four groups of rats (each group of ten animals), all of them receiving NEM, and orally administered as it follows: • a. control group: the vehicle formed of an aqueous suspension 1% w/v of carboxymethylcellulose, • b. one group (group b—comparative) administered at the same time with 5 mg/Kg (0.02 mmoles/Kg) of flurbiprofen+2.7 mg/Kg (0.02 mmoles/Kg) of 4-thiazolidin carboxilic acid in the same above vehicle, • c. one group (group c—comparative) administered at the same time with 7.4 mg/Kg (0.02 mmoles/Kg) of 4-(nitroxy)butyl ester of flurbiprofen, synthetized according to the method described in WO 94/12463, +2.7 mg/Kg (0.02 mmoles/Kg) of 4-thiazolidin carboxilic in the same above vehicle, • d. one group (group d) administered with 9.8 mg/Kg (0.02 mmoles/Kg) of 3-[2-fluoro-α-methyl-(1,1′-biphenyl)-4-acetyl]thiazolidin-4-carboxylic acid 4-(nitroxy)butyl ester synthetized as from Ex. 1(indicated as NO-Flurbiprofen in Table VII), in the above same vehicle.

Q: How did the Gastropathy % incidence turn out when `CC(C(=O)N1CSCC1C(=O)OCCCCO[N+](=O)[O-])c1ccc(-c2ccccc2)c(F)c1` (stereo not drawn) [Example 1, 3-[2-fluoro-α-methyl-(1,1′-biphenyl)-4-acetyl]thiazolidin-4-carboxylic acid 4-(nitroxy)butyl ester] was run?
A: The Gastropathy % incidence was 0%.
